Results: patent US5089516A, “1-phenyl-3,5-pyrazolidinedione hydroxystyrene compounds which have tyrosine kinase inhibiting activity” (Kanegafuchi Kagaku Kogyo Kabushiki Kaisha, priority 1987, dated 1992)

Test system: antigen-induced anaphylactic shock death
Assay: Protecting effect against antigen-induced anaphylactic shock death in actively sensitized guinea pigs
Assay type: in vivo, male guinea pigs
Details: Cavia porcellus, 1.5 h, oral, 30 minutes before antigen inhalation
Method: (2) Protecting effect against antigen-induced anaphylactic shock death in actively sensitized guinea pigs
Anaphylactic shock death caused by inhalation of antigen was observed according to John P. Devlin Pulmonary and Antiallergic Drugs, John Wiley & Sons, (1985)] employing actively sensitized guinea pigs.
Each 100 mg/kg of body weight ovalbumin dissolved in physiological saline was injected into gluteus and into peritoneal cavity of male guinea pigs weighing 250 to 350 g. Three days later, the animals were further injected intraperitoneally with ovalbumin (100 mg/kg body weight) to conduct booster. Those animals were employed for testing 3 to 4 weeks after the sensitization.
In each group, 4 or more actively sensitized guinea pigs were pretreated by subcutaneously injecting pyrilamine (1 mg/kg body weight) 30 minutes before antigen inhalation to suppress histamine-dependent response and propranolol (1 mg/kg body weight) to enhance the response induced by other than histamine 10 minutes before the antigen inhalation.
The animal was placed in a desiccator with a capacity of about […] and 0.5% aqueous solution of ovalbumin in the state of aerosol was inhaled with ultrasonic type nebulizer for five minutes. Anaphylactic shock death was observed and the animals survived for 90 minutes or more after antigen inhalation were estimated to be protected. All the animals of the control group died due to anaphylactic shock. The compounds of the present invention and therapeutic antiasthmatic agent (tranilast, theophylline) were administered orally 30 minutes before the antigen inhalation.

CC(C)c1cc(C=C2SC(NCc3ccc(F)cc3)=NC2=O)cc(C(C)C)c1O [Compound 35]
responders at 10 mg/kg: 50%

CC(C)c1cc(C=C2SC(NCc3ccc(S(N)(=O)=O)cc3)=NC2=O)cc(C(C)C)c1O [Compound 41]
responders at 10 mg/kg: 25%

CC(C)c1cc(C=C2SC(NCc3ccc(Cl)c(Cl)c3)=NC2=O)cc(C(C)C)c1O [Compound 37]
responders at 100 mg/kg: 25%

Cc1ccc(CNC2=NC(=O)C(=Cc3cc(C(C)C)c(O)c(C(C)C)c3)S2)cc1 [Compound 39]
responders at 100 mg/kg: 25%
